The values that follow come from EP2181589A1, “Neurotoxic sterol glycosides” (Shaw, Christopher Ariel, priority 2008, dated 2010).

Data set [1] has as its system Cholinergic motor neurons in the spinal cord. The data set is described as follows: Choline acetyl transferase immunofluorescence. Format: in vivo, CD-1 mice. The following applies: SG-fed vs control; for Cholinergic neurons: ventral horn of lumbar spinal cord. On the procedure: (§1) The synthetic SG was mixed with finely ground Purina Chow mouse pellets (Mouse Diet™, Purina) to create the experimental pellets with a SG content of 1000 µg per pellet. Dry materials were blended with a sterile silicon spatula. For every 5 g of standard feed, 2.5 mL of doubly-distilled water (dd)H2O was added and the dough was kneaded and round up into pellets. A single sterol glucoside containing pellet was placed in the feeding tray each morning before the addition of regular mouse chow (ad libitum). All experimental pellets were entirely consumed by the mice each day. Control mice were fed standard mouse chow pellets of identical weight with no additives. SG feeding was conducted daily for 15 weeks and mice were behaviorally monitored until sacrifice at 35 weeks (time point 1) or 52 weeks (time point 2).
Tissue-mounted slides were processed for fluorescence microscopy as follows: Sections were rinsed in coplin jars for 45 minutes at room temperature (RT) in three changes of PBS. Sections were then incubated at RT for 30 minutes in a blocking permeabilization solution made of 5% normal goat serum (NGS), 5% normal rabbit serum (NRS) or 5% BlokHen II (Aves Labs, Inc., Tigard, OR), 0.05% Triton X-100 and PBS. Subsequently, the blocking solution was tipped off and the slides were rinsed in PBS for 2 minutes. […]

The subject of data set [2] is CD-1 mice. The data set is described as follows: Wire hang test. Format: in vivo. On the procedure: Five-month old male CD-1 mice (30.1-35.7 g, 7.5 cm - 8.8 cm) were purchased from Charles River (Wilmington, MA). Adult mice were chosen to mimic the mean age of onset of ALS-PDC (Kurland, 1988; Kurland et al., 1994). Thirty mice for the SG study were randomly divided into 2 groups (14 control and 16 experimental animals). All animals were housed singly in a virus-free barrier facility in a room maintained at 22°C under a 12 hour light/dark cycle. The mice were provided ad libitum access to food and water.
as §1
Wire hang: Neuromuscular strength was tested by the wire hang (or hanging wire) test (Wilson et al., 2003d; Wilson et al., 2004c; Wilson et al., 2005; Tabata et al., 2008). Both balance and grip strength are required for a mouse to keep its body suspended (Crawley, 2000). Mice were placed on a wire cage lid elevated 50 cm above a soft landing surface. The latency to fall off the wire (maximum 60 seconds) (Sango et al., 1996) was measured from the moment the wire apparatus was inverted (180°). Wire hang testing was conducted biweekly.

On to `CCC(C=CC(C)C1CCC2C3CC=C4CC(OC5OC(CO)C(O)C(O)C5O)CCC4(C)C3CCC12C)C(C)C` (stereo not shown) [SG], for which the figures for the fewer cholinergic neurons in data set [1] (35 weeks) and in data set [1] (52 weeks) were 18% and 32%, respectively. Further, the Cholinergic neurons result in data set [1] (time-point 1, 35 wk) is “Cholinergic neurons (-18%)”; in data set [1] (time-point 2, 52 wk), “Cholinergic neurons (-32%)”. Besides, in data set [2] (SG fed mice, control group showed an increase), the “increase in the time between inversion of the apparatus and falling” value is “did not”. Further, the Wirehang test performance entry in data set [2] (SG-fed animals, prior to 35 weeks) is listed as “decline in performance”. The Wirehang entry in data set [2] (SG-fed vs control, time-point 2, 52 wk) is reported as “Wirehang* (*p<0.05)”.
